According to patent publication US11479551B2, “MTA-cooperative PRMT5 inhibitors” (Mirati Therapeutics, Inc., priority 2019, dated 2022):
Read-outs that look alike come from different tables or passages of the source.

Target: PRMT5/MEP50 complex (Homo sapiens (Human), UniProt O14744)
Test: PRMT5:MEP50 FlashPlate Assay (histone H4 peptide substrate, plus and minus MTA)
Format: biochemical
Procedure: The PRMT5 inhibitory activity of compounds of the present invention was determined using either a PRMT5:MEP50 FlashPlate Assay (Reaction Biology Corporation) or a PRMT5:MEP50 HotSpot Assay (Reaction Biology Corporation).
1. PRMT5:MEP50 FlashPlate Assay

[1] = IC50 + 2 μM MTA (nM), in the presence of 2 μM MTA
[2] = in the absence of MTA, read-out: IC50
[3] = read-out: IC50 + 2 μM MTA, in the presence of 2 μM MTA

PRMT5/MEP50 complex, sequence (O14744 2-637): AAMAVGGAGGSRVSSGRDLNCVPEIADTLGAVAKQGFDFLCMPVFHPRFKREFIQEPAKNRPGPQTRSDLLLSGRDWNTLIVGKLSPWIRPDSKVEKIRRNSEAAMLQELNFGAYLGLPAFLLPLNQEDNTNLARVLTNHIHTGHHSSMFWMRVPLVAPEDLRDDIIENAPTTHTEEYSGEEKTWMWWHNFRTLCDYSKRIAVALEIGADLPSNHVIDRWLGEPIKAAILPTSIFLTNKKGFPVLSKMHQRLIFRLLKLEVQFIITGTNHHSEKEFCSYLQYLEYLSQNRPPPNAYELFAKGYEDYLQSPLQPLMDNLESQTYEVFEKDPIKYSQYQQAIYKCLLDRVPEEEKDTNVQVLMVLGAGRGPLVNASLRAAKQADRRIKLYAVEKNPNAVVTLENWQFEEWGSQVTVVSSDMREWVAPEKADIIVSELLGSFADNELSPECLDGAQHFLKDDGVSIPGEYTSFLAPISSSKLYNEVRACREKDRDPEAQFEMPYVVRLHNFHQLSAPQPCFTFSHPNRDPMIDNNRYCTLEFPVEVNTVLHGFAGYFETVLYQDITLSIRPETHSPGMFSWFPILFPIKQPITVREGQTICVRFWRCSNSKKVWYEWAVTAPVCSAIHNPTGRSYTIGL
PRMT5/MEP50 complex, sequence (Q9BQA1 2-342 partner): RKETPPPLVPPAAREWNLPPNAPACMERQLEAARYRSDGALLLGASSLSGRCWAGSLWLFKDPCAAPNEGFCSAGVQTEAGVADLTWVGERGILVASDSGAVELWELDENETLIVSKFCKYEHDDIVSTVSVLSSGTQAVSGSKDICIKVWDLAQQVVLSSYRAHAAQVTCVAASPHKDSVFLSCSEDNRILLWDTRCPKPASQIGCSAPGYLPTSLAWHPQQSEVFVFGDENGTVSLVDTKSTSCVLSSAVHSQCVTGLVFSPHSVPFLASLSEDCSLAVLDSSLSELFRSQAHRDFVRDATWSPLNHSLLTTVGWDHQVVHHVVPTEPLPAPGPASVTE

| IC50 [1] | IC50 [2] | IC50 [3] | SMILES |
| --- | --- | --- | --- |
| 7700 nM | 85200 nM |  | Cn1cncc1-c1ccc2c(=O)[nH]nc(CN)c2c1 [Example 3-30, 4-(aminomethyl)-6-(1-methyl-1H-imidazol-5-yl)phthalazin-1(2H)-one] |
| 80000 nM | > 100000 nM |  | NCc1n[nH]c(=O)c2ccc(-c3cnc[nH]3)cc12 [Example 3-31, 4-(aminomethyl)-6-(1H-imidazol-5-yl)phthalazin-1(2H)-one] |
|  | 11600 nM | 710 nM | NCc1n[nH]c(=O)c2ccc(-c3cnn(CCO)c3)cc12 [Example 3-32, 4-(aminomethyl)-6-(1-(2-hydroxyethyl)-1H-pyrazol-4-yl)phthalazin-1(2H)-one] |
| 61 nM | 1570 nM |  | NCc1n[nH]c(=O)c2ccc(-c3cncc(C4CC4)c3)cc12 [Example 3-33, 4-(aminomethyl)-6-(5-cyclopropylpyridin-3-yl)phthalazin-1(2H)-one] |
| 73 nM | 2040 nM |  | CCCc1cncc(-c2ccc3c(=O)[nH]nc(CN)c3c2)c1 [Example 3-34, 4-(aminomethyl)-6-(5-propylpyridin-3-yl)phthalazin-1(2H)-one] |
| 59 nM | 1530 nM |  | NCc1n[nH]c(=O)c2ccc(-c3cncc(CC4CC4)c3)cc12 [Example 3-35, 4-(aminomethyl)-6-(5-(cyclopropylmethyl)pyridin-3-yl)phthalazin-1(2H)-one] |
| 450 nM | 9130 nM |  | NCc1n[nH]c(=O)c2ccc(-c3cncc(C(F)F)c3)cc12 [Example 3-36, 4-(aminomethyl)-6-(5-(difluoromethyl)pyridin-3-yl)phthalazin-1(2H)-one] |
| 3200 nM | 72100 nM |  | N#Cc1cncc(-c2ccc3c(=O)[nH]nc(CN)c3c2)c1 [Example 3-37, 5-(4-(aminomethyl)-1-oxo-1,2-dihydrophthalazin-6-yl)nicotinonitrile] |
|  | 4940 nM | 370 nM | N#Cc1cncc(-c2ccc3c(=O)[nH]nc(CN)c3c2)c1F [Example 3-38] |
| 920 nM | 24300 nM |  | CC#Cc1cncc(-c2ccc3c(=O)[nH]nc(CN)c3c2)c1 [Example 3-39, 4-(aminomethyl)-6-(5-(prop-1-yn-1-yl)pyridin-3-yl)phthalazin-1(2H)-one] |
| 1600 nM | 27500 nM |  | NCc1n[nH]c(=O)c2ccc(-c3cncc(F)c3)cc12 [Example 3-41, 4-(aminomethyl)-6-(5-fluoropyridin-3-yl)phthalazin-1(2H)-one] |
| 200 nM | 3580 nM |  | NCc1n[nH]c(=O)c2ccc(-c3cncc(Cl)c3)cc12 [Example 3-42, 4-(aminomethyl)-6-(5-chloropyridin-3-yl)phthalazin-1(2H)-one] |
| 340 nM | 6500 nM |  | NCc1n[nH]c(=O)c2ccc(-c3cncc(C(F)(F)F)c3)cc12 [Example 3-43, 4-(aminomethyl)-6-(5-(trifluoromethyl)pyridin-3-yl)phthalazin-1(2H)-one] |
| 1200 nM | 19400 nM |  | NCc1n[nH]c(=O)c2ccc(-c3cncc(O)c3)cc12 [Example 3-44, 4-(aminomethyl)-6-(5-hydroxypyridin-3-yl)phthalazin-1(2H)-one] |
| 370 nM | 6810 nM |  | COc1cncc(-c2ccc3c(=O)[nH]nc(CN)c3c2)c1 [Example 3-45, 4-(aminomethyl)-6-(5-methoxypyridin-3-yl)phthalazin-1(2H)-one] |
| 570 nM | 7880 nM |  | COCc1cncc(-c2ccc3c(=O)[nH]nc(CN)c3c2)c1 [Example 3-46, 4-(aminomethyl)-6-(5-(methoxymethyl)pyridin-3-yl)phthalazin-1(2H)-one] |

| IC50 [1] | IC50 [2] | IC50 [3] | SMILES |
| --- | --- | --- | --- |
| 56 nM | 2950 nM |  | NCc1n[nH]c(=O)c2ccc(-c3cncc(CO)c3)cc12 [Example 3-47, 4-(aminomethyl)-6-(5-(hydroxymethyl)pyridin-3-yl)phthalazin-1(2H)-one] |
| 280 nM | 7980 nM |  | CS(=O)(=O)c1cncc(-c2ccc3c(=O)[nH]nc(CN)c3c2)c1 [Example 3-48, 4-(aminomethyl)-6-(5-(methylsulfonyl)pyridin-3-yl)phthalazin-1(2H)-one] |
| 110 nM | 3850 nM |  | CCOc1cncc(-c2ccc3c(=O)[nH]nc(CN)c3c2)c1 [Example 3-49, 4-(aminomethyl)-6-(5-ethoxypyridin-3-yl)phthalazin-1(2H)-one] |
| 500 nM | 11100 nM |  | NCc1n[nH]c(=O)c2ccc(-c3cncc(OC(F)F)c3)cc12 [Example 3-51, 4-(aminomethyl)-6-(5-(difluoromethoxy)pyridin-3-yl)phthalazin-1(2H)-one] |
| 370 nM | 3000 nM |  | CC(C)Oc1cncc(-c2ccc3c(=O)[nH]nc(CN)c3c2)c1 [Example 3-52, 4-(aminomethyl)-6-(5-isopropoxypyridin-3-yl)phthalazin-1(2H)-one] |
| 28 nM | 1350 nM |  | NCc1n[nH]c(=O)c2ccc(-c3cncc(OCC4CC4)c3)cc12 [Example 3-53, 4-(aminomethyl)-6-(5-(cyclopropylmethoxy)pyridin-3-yl)phthalazin-1(2H)-one] |
| 64 nM | 1290 nM |  | NCc1n[nH]c(=O)c2ccc(-c3cncc4ccccc34)cc12 [Example 3-54, 4-(aminomethyl)-6-(isoquinolin-4-yl)phthalazin-1(2H)-one] |
| 83 nM | 1870 nM |  | NCc1n[nH]c(=O)c2ccc(-c3cncc4[nH]ccc34)cc12 [Example 3-55, 4-(aminomethyl)-6-(1H-pyrrolo[2,3-c]pyridin-4-yl)phthalazin-1(2H)-one] |
| 550 nM | 11500 nM |  | Cc1c(Cl)cncc1-c1ccc2c(=O)[nH]nc(CN)c2c1 [Example 3-56, 4-(aminomethyl)-6-(5-chloro-4-methylpyridin-3-yl)phthalazin-1(2H)-one] |
| 30000 nM |  |  | NCc1n[nH]c(=O)c2ccc(-c3nncn3Cc3ccccc3)cc12 [Example 3-57, 4-(aminomethyl)-6-(4-benzyl-4H-1,2,4-triazol-3-yl)phthalazin-1(2H)-one] |
| 510 nM | 8070 nM |  | NCc1n[nH]c(=O)c2ccc(-c3cncc(N4CCOCC4)c3)cc12 [Example 3-58, 4-(aminomethyl)-6-(5-morpholinopyridin-3-yl)phthalazin-1(2H)-one] |
| 8100 nM | > 100000 nM |  | Cc1ccccc1-c1ccc2c(=O)[nH]nc(CN)c2c1 [Example 3-60, 4-(aminomethyl)-6-(o-tolyl)phthalazin-1(2H)-one] |
| 3.4 nM | 80 nM |  | CC(C)c1c[nH]c2ncc(-c3ccc4c(=O)[nH]nc(CN)c4c3)cc12 [Example 3-61, 4-(aminomethyl)-6-(3-isopropyl-1H-pyrrolo[2,3-b]pyridin-5-yl)phthalazin-1(2H)-one] |
| 45000 nM | > 100000 nM |  | NCc1n[nH]c(=O)c2ccc(-c3cccnn3)cc12 [Example 4-1, 4-(aminomethyl)-6-(pyridazin-3-yl)phthalazin-1(2H)-one] |
| 490 nM | 13800 nM |  | NCc1n[nH]c(=O)c2ccc(-c3cnsc3)cc12 [Example 4-2, 4-(aminomethyl)-6-(isothiazol-4-yl)phthalazin-1(2H)-one] |
| 37 nM | 926 nM |  | NCc1n[nH]c(=O)c2ccc(-c3cnc4ccccn34)cc12 [Example 4-3, 4-(aminomethyl)-6-(imidazo[1,2-a]pyridin-3-yl)phthalazin-1(2H)-one] |
